Tests used:
[1] = target: ErbB2 insYVMA (HER2-YVMA, SEQ ID NO: 2) (Homo sapiens, UniProt P04626, INS775YVMA/P1170A); experiment: biochemical; conditions: ErbB2 insYVMA enzyme assay; read-out: Assay 1 IC50
ErbB2 WT = ErbB2 WT (Homo sapiens (Human), UniProt P04626); experiment: ErbB enzyme assay (CisBio HTRF KinEASE-TK), Assay 2; assay type: biochemical
In short: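 Readout is HTRF KinEASE-TK, using Sa-XL665 and cryptate antibody for 1 h at 22 °C, as percent of control between DMSO-only (100) and pre-quenched (0) reactions. The kinase reaction runs 30 min at 22 °C with 1 mM ATP and 250 nM biotinylated TK substrate, in HEPES pH 7.4 with MgCl2 and 2% DMSO.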

EGFR = EGFR (Homo sapiens (Human), UniProt P00533); experiment: ErbB enzyme assay (CisBio HTRF KinEASE-TK), Assay 3; assay type: biochemical
Sequence of EGFR (P00533 25-1210): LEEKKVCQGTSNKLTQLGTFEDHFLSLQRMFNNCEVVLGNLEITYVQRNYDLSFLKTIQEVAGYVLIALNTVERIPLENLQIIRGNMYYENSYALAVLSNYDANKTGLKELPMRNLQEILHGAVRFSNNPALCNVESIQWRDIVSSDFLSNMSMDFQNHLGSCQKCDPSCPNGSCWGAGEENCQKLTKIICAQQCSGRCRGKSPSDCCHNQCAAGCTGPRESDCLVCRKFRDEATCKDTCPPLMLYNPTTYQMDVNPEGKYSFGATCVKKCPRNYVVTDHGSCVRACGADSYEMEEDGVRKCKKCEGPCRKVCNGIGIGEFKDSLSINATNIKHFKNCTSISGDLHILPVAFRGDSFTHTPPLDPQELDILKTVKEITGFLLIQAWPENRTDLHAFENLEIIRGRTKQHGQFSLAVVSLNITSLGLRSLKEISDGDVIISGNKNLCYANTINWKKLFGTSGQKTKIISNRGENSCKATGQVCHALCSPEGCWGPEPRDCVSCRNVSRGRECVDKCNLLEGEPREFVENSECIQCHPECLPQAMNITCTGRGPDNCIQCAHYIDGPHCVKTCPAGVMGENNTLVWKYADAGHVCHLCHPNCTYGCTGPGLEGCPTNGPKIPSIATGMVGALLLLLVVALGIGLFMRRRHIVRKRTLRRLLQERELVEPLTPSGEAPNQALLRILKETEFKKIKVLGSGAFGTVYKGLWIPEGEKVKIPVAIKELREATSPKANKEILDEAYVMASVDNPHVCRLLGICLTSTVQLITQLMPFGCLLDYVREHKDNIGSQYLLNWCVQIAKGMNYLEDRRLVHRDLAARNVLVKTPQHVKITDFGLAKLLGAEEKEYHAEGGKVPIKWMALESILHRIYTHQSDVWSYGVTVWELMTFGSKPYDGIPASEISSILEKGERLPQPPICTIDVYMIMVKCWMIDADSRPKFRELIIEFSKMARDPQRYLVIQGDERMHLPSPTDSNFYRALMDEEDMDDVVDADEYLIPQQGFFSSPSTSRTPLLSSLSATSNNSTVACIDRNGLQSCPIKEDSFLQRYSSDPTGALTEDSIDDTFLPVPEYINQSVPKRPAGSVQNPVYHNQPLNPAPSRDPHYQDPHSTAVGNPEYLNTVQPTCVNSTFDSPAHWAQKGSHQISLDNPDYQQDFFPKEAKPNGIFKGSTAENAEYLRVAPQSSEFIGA
In short: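 HTRF dual-wavelength read after 1 h detection; POC normalised to DMSO (100) and pre-quenched (0) controls, IC50 where 4-parameter curve crosses 50 POC. Reaction: 250 nM TK-substrate biotin, 1 mM ATP, pH 7.4 HEPES buffer with MgCl2, 30 min, 22 °C.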

[2] = target: ErbB2 with Exon 20 YVMA insertion (HER2-YVMA) (Homo sapiens (Human), UniProt P04626, INS775YVMA); experiment: Cellular phosphorylation assay, constitutive ErbB2 phosphorylation (Y1196) in engineered NIH 3T3 cells, Assay 4; assay type: cell-based
Sequence of ErbB2 with Exon 20 YVMA insertion (HER2-YVMA) (P04626 other isoform, or with tags, fused parts or gaps ins YVMA behind 775): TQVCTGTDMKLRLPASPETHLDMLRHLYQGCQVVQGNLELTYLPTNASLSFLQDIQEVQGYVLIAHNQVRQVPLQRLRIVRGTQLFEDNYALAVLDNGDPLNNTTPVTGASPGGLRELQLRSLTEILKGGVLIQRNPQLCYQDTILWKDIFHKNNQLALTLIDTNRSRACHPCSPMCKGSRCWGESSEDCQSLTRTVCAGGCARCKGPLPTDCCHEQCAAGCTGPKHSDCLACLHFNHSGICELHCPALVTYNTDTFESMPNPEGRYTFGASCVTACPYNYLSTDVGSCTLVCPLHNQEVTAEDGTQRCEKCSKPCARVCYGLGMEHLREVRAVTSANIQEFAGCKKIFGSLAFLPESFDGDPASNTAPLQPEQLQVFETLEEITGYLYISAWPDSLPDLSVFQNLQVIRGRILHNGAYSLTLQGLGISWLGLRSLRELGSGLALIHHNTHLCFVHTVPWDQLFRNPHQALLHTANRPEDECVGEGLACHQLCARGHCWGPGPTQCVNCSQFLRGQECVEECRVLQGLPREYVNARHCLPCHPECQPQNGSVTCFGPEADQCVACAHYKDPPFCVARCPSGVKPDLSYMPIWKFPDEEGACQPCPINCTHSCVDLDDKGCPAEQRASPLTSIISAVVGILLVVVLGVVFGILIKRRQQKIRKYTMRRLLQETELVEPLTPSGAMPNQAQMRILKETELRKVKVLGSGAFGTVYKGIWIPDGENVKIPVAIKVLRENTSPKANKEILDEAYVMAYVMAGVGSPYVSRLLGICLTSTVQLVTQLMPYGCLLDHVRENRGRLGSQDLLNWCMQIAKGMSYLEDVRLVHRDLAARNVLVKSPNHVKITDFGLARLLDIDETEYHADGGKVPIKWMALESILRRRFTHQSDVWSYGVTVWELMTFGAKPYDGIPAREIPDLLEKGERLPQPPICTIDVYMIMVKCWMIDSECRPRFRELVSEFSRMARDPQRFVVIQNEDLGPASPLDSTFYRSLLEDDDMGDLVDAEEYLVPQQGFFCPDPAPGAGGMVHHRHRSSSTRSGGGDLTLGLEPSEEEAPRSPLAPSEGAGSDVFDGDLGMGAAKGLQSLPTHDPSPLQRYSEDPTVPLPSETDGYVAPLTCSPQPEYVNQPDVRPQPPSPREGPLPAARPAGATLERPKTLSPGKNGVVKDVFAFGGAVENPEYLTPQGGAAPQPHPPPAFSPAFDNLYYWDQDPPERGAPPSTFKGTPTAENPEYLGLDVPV
In short: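 In-cell Western in NIH 3T3 cells carrying ErbB2 exon 20 YVMA insertion, with no ligand stimulation. One hour compound exposure at 37 °C before fixation and anti-pY1196 plus GAPDH staining with dual-wavelength fluorescence. IC50 derived after GAPDH normalization.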

EGFR wild type (EGFR WT) = EGFR wild type (EGFR WT) (Homo sapiens (Human), UniProt P00533); experiment: Cellular phosphorylation assay, EGF-stimulated EGFR phosphorylation in engineered NIH 3T3 cells, Phospho-EGFR DuoSet IC ELISA, Assay 5; assay type: cell-based
In short: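 Phospho-EGFR ELISA on lysates of engineered NIH 3T3 EGFR WT cells, IC50 derived from concentration curves. Cells plated at 20,000/well overnight, given compound dilutions 1 h at 37 °C, then rEGF 100 ng/ml for a further 10 min before lysis.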

Sequence of ErbB2 WT (P04626 23-1255): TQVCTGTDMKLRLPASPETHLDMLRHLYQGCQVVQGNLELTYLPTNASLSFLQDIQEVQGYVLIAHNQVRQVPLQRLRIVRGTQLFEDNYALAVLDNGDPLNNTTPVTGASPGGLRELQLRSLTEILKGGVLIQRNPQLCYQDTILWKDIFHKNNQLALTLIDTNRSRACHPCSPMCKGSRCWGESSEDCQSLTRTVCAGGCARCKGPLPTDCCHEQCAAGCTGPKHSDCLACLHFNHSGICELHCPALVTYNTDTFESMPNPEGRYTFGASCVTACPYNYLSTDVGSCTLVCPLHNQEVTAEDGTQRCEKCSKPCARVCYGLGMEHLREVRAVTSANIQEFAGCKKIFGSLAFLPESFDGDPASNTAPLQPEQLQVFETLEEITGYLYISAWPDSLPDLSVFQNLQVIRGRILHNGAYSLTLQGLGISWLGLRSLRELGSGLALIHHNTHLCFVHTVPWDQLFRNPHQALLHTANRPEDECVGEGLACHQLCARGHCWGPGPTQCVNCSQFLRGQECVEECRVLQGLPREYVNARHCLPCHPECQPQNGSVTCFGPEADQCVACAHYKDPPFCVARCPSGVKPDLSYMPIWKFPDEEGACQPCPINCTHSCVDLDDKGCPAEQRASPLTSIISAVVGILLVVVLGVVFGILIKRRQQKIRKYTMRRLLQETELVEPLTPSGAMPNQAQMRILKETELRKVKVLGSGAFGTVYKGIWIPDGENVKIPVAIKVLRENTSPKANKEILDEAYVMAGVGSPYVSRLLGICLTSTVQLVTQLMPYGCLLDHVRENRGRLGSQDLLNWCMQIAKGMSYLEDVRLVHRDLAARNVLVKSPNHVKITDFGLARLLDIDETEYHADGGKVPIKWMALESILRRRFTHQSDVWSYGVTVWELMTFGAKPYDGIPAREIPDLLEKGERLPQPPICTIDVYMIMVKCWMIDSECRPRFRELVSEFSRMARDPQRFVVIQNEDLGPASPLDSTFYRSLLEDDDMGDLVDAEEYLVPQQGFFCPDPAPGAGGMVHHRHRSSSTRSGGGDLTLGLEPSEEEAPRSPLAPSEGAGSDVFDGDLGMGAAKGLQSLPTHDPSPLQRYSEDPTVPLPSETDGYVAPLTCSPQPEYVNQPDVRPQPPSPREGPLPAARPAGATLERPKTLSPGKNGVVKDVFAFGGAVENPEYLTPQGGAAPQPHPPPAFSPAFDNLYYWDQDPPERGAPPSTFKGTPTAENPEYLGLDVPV
Sequence of ErbB2 insYVMA (HER2-YVMA, SEQ ID NO: 2) (P04626 with tags, fused parts or gaps INS775YVMA/P1170A limits assumed): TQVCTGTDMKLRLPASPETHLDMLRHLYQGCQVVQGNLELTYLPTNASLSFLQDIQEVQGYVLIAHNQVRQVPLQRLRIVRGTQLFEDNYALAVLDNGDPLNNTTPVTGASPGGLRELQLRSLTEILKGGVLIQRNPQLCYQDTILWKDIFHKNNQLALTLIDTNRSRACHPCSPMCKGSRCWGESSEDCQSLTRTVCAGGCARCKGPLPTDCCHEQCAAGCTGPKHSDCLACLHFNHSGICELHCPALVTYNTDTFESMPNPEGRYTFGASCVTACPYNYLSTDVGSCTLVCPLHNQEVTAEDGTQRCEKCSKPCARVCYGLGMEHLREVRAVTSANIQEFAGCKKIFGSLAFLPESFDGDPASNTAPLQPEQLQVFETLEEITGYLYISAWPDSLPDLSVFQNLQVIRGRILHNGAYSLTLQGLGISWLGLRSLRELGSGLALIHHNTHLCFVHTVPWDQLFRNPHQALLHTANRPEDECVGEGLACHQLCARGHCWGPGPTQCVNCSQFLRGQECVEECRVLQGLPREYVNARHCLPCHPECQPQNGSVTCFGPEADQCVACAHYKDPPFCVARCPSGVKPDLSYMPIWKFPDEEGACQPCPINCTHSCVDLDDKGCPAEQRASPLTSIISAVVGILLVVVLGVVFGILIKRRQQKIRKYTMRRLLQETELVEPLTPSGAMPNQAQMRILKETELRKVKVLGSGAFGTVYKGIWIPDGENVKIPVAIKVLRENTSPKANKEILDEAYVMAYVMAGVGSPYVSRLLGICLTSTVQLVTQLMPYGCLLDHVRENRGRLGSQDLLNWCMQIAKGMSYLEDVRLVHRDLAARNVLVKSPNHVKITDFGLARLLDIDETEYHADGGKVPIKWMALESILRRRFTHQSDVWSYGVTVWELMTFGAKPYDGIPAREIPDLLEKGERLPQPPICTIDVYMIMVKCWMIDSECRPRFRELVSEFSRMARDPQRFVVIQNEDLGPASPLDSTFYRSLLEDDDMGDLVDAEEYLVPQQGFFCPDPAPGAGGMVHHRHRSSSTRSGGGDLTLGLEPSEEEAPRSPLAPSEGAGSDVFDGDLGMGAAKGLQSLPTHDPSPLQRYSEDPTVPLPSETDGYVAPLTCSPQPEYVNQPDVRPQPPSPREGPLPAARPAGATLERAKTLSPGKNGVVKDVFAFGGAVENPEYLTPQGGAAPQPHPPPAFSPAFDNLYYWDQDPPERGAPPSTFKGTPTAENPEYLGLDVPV

Row | Compound | IC50 [1] | IC50 (ErbB2 WT) | IC50 (EGFR) | IC50 [2] | IC50 (EGFR wild type (EGFR WT))
1 | Cc1cc(Nc2ncnc3cnc(N4CCC[C@@H]5COC[C@@H]54)nc23)ccc1Oc1ccc2c(c1)ncn2C [Example 432] | 28.8 nM | 71.1 nM | ≥ 10 µM | 80.2 nM | ≥ 5 µM
2 | Clc1cc(Nc2ncnc3cnc(N4C[C@H]5C[C@@H]4CO5)nc23)ccc1Oc1ccn2ncnc2c1 [Example 418] | 42.8 nM | 103 nM | ≥ 10 µM | 229 nM | ≥ 5 µM
3 | Cc1c(Oc2ccn3ncnc3c2)ccc(Nc2ncnc3cnc(N[C@H]4CNC[C@H]4F)nc23)c1F [Example 318] | 125 nM | 88 nM | 4.33 µM | 928 nM | ≥ 5 µM
4 | Cc1cc(Nc2ncnc3cnc(N(C)C4COC4)nc23)ccc1Oc1ccn2ncnc2c1 [Example 403] | 16.7 nM | 12 nM | 6.63 µM | 339 nM | ≥ 5 µM
5 | Cc1cc(Nc2ncnc3cnc(N4CCC[C@@]45CCOC5)nc23)ccc1Oc1ccc2c(c1)ncn2C (racemic) [Example 115, rac-(R)—N-(3-methyl-4-((1-methyl-1H-benzo[d]imidazol-5-yl)oxy)phenyl)-6-(7-oxa-1-azaspiro[4.4]nonan-1-yl)pyrimido[5,4-d]pyrimidin-4-amine] | 52.4 nM | 56.7 nM | 2.19 µM | 15.6 nM | ≥ 5 µM
6 | CN(C)c1ncc2ncnc(Nc3ccc(Oc4ccn5ncnc5c4)c(Cl)c3)c2n1 [Example 396] | 4.9 nM | 9.6 nM | ≥ 10 µM | 23.9 nM | ≥ 5 µM
7 | Cc1cc(Nc2ncnc3cnc(N4CC[C@@H]4C(C)(C)O)nc23)ccc1Oc1ccn2ncnc2c1 [Example 423] | 110 nM | 337 nM | ≥ 10 µM | 1950 nM | ≥ 5 µM
8 | Cc1c(Oc2ccn3ncnc3c2)ccc(Nc2ncnc3cnc(N4CC[C@@H](O)C4)nc23)c1F [Example 312] | 38.9 nM | 54.2 nM | ≥ 10 µM | 1590 nM | ≥ 5 µM
9 | CON(C)c1ncc2ncnc(Nc3ccc(Oc4ccc5c(c4)ncn5C)c(C)c3)c2n1 [Example 22, 6-(methoxy(methyl)amino)-N-(3-methyl-4-((1-methyl-1H-benzo[d]imidazol-5-yl)oxy)phenyl)pyrimido[5,4-d]pyrimidin-4-amine] | 25.5 nM | 52.4 nM | 8.7 µM | 13 nM | ≥ 5 µM
10 | CON1CCN(c2ncc3ncnc(Nc4ccc(Oc5ccn6ncnc6c5)c(Cl)c4)c3n2)CC1 [Example 436] | 15.4 nM | 25 nM | ≥ 10 µM | 61.1 nM | ≥ 5 µM
11 | CN(c1ncc2ncnc(Nc3ccc(Oc4ccn5ncnc5c4)c(Cl)c3)c2n1)[C@@H]1CCCOC1 [Example 368] | 3.6 nM | 4.8 nM | 0.303 µM | 17.4 nM | ≥ 5 µM
12 | Cn1cnc2cc(Oc3ccc(Nc4ncnc5cnc(N6CC[C@@H]7COC[C@H]76)nc45)cc3Cl)ccc21 [Example 489] | 17.7 nM | 9.7 nM | 3.37 µM | 16.4 nM | ≥ 5 µM
13 | CO[C@@H]1CCN(c2ncc3ncnc(Nc4ccc(Oc5ccn6ncnc6c5)c(C)c4)c3n2)C1 [Example 395] | 24.6 nM | 57.6 nM | ≥ 10 µM | 898 nM | ≥ 5 µM
14 | CON1CCC(Nc2ncc3ncnc(Nc4ccc(Oc5ccc6c(c5)ncn6C)c(C)c4)c3n2)C1 (centres unmarked) [Example 220, N2-(1-methoxpyrrolidin-3-yl)-N8-(3-methyl-4-((1-methyl-1H-benzo[d]imidazol-5-yl)oxy)phenyl)pyrimido[5,4-d]pyrimidine-2,8-diamine] | 9.3 nM | 12.1 nM | 1.52 µM | 8 nM | ≥ 5 µM
15 | COC1(C)CN(c2ncc3ncnc(Nc4ccc(Oc5ccc6c(c5)ncn6C)c(C)c4)c3n2)C1 [Example 298] | 40.2 nM | 234 nM | ≥ 10 µM | 38.6 nM | ≥ 5 µM
16 | Cc1cc(Nc2ncnc3cnc(N4C[C@H]5C[C@@H]4CO5)nc23)ccc1Oc1ccn2ncnc2c1 [Example 121, N-(4-([1,2,4]triazolo[1,5-a]pyridin-7-yloxy)-3-methylphenyl)-6-((1R,4R)-2-oxa-5-azabicyclo[2.2.1]heptan-5-yl)pyrimido[5,4-d]pyrimidin-4-amine] | 32.4 nM | 121 nM | ≥ 10 µM | 667 nM | ≥ 5 µM

Row | Compound | IC50 [1] | IC50 (ErbB2 WT) | IC50 (EGFR) | IC50 [2] | IC50 (EGFR wild type (EGFR WT))
17 | Cc1cc(Nc2ncnc3cnc(N4CCCS4(=O)=O)nc23)ccc1Oc1ccc2c(c1)ncn2C [Example 139, 2-(8-((3-methyl-4-((1-methyl-1H-benzo[d]imidazol-5-yl)oxy)phenyl)amino)pyrimido[5,4-d]pyrimidin-2-yl)isothiazolidine 1,1-dioxide] | 9.6 nM | 12.6 nM | 1.57 µM | 6.3 nM | ≥ 5 µM
18 | C[C@@H]1CN(c2ncc3ncnc(Nc4ccc(Oc5ccc6c(c5)ncn6C)c(Cl)c4)c3n2)CCO1 [Example 452] | 47.6 nM | 115 nM | ≥ 10 µM | 20.2 nM | ≥ 5 µM
19 | C[C@@H]1COCCN1c1ncc2ncnc(Nc3ccc(Oc4ccc5c(c4)ncn5C)c(Cl)c3)c2n1 [Example 144, (R)—N-(3-chloro-4-((1-methyl-1H-benzo[d]imidazol-5-yl)oxy)phenyl)-6-(3-methylmorpholino)pyrimido[5,4-d]pyrimidin-4-amine] | 59.5 nM | 78.2 nM | 6.91 µM | 38.1 nM | ≥ 5 µM
20 | Cc1cc(Nc2ncnc3cnc(N4C[C@H]5C[C@@H]4CO5)nc23)c(F)cc1Oc1ccc2c(c1)ncn2C [Example 481] | 29.4 nM | 41.2 nM | ≥ 10 µM | 74.2 nM | ≥ 5 µM
21 | Cc1cc(Nc2ncnc3cnc(N4C[C@@H](O)C5(CC5)C4)nc23)c(Cl)cc1Oc1ccc2c(c1)ncn2C [Example 488] | 73.8 nM | 174 nM | ≥ 10 µM | 118 nM | ≥ 5 µM
22 | Clc1cc(Nc2ncnc3cnc(N4C[C@@H]5[C@H](C4)[C@@H]4CC[C@H]5O4)nc23)ccc1Oc1ccn2ncnc2c1 [Example 399] | 28.2 nM | 29 nM | ≥ 10 µM | 192 nM | ≥ 5 µM
23 | COC[C@H]1CCN1c1ncc2ncnc(Nc3ccc(Oc4ccn5ncnc5c4)c(Cl)c3)c2n1 [Example 321] | 12.9 nM | 65.7 nM | 4.34 µM | 72 nM | ≥ 5 µM
24 | Cc1c(Oc2ccn3ncnc3c2)ccc(Nc2ncnc3cnc(N(C)CC(F)F)nc23)c1F [Example 317] | 18.1 nM | 101 nM | ≥ 10 µM | 402 nM | ≥ 5 µM
25 | Cc1cc(Nc2ncnc3cnc(O[C@@H]4CNCC4(F)F)nc23)ccc1Oc1ccc2c(c1)ncn2C [Example 301] | 39.1 nM | 241 nM | ≥ 10 µM | 60.8 nM | ≥ 5 µM
26 | Cc1c(Oc2ccc3c(c2)ncn3C)ccc(Nc2ncnc3cnc(N4CC[C@H]4C(C)(C)O)nc23)c1F [Example 453] | 64.6 nM | 474 nM | ≥ 10 µM | 383 nM | ≥ 5 µM
27 | Cc1cc(Nc2ncnc3cnc(NC(C)C)nc23)ccc1Oc1ccc2c(c1)ncn2C [Example 261] | 48.8 nM | 86.1 nM | ≥ 10 µM | 21.9 nM | ≥ 5 µM
28 | O[C@H]1[C@@H]2CC[C@H]1CN(c1ncc3ncnc(Nc4ccc(Oc5ccn6ncnc6c5)c(Cl)c4)c3n1)C2 [Example 342] | 10.4 nM | 25.3 nM | 1.67 µM | 108 nM | ≥ 5 µM
29 | O[C@H]1C[C@@H]2C[C@H]1CN2c1ncc2ncnc(Nc3ccc(Oc4ccn5ncnc5c4)c(Cl)c3)c2n1 [Example 334] | 20.4 nM | 55.7 nM | 1.65 µM | 266 nM | ≥ 5 µM
30 | Cc1cc(Nc2ncnc3cnc(N(C)CC(C)(C)C#N)nc23)ccc1Oc1ccc2c(c1)ncn2C [Example 205, 2,2-dimethyl-3-(methyl(8-((3-methyl-4-((1-methyl-1H-benzo[d]imidazol-5-yl)oxy)phenyl)amino)pyrimido[5,4-d]pyrimidin-2-yl)amino)propanenitrile] | 29.7 nM | 104 nM | ≥ 10 µM | 25.6 nM | ≥ 5 µM
31 | Clc1cc(Nc2ncnc3cnc(N4CCC5COCC54)nc23)ccc1Oc1ccn2ncnc2c1 (centres unmarked) [Example 377] | 7.6 nM | 14.7 nM | 1.41 µM | 58.2 nM | ≥ 5 µM
